Measured values from ChEMBL document CHEMBL1201862, “PubChem BioAssay data set” (2004).
Activity calls are given as the source filed them.

Tests used:
[1] = target: T1, Tyrosine-protein phosphatase non-receptor type 22 (Homo sapiens, UniProt Q9Y2R2); format: functional
T1 sequence (Q9Y2R2 whole entry): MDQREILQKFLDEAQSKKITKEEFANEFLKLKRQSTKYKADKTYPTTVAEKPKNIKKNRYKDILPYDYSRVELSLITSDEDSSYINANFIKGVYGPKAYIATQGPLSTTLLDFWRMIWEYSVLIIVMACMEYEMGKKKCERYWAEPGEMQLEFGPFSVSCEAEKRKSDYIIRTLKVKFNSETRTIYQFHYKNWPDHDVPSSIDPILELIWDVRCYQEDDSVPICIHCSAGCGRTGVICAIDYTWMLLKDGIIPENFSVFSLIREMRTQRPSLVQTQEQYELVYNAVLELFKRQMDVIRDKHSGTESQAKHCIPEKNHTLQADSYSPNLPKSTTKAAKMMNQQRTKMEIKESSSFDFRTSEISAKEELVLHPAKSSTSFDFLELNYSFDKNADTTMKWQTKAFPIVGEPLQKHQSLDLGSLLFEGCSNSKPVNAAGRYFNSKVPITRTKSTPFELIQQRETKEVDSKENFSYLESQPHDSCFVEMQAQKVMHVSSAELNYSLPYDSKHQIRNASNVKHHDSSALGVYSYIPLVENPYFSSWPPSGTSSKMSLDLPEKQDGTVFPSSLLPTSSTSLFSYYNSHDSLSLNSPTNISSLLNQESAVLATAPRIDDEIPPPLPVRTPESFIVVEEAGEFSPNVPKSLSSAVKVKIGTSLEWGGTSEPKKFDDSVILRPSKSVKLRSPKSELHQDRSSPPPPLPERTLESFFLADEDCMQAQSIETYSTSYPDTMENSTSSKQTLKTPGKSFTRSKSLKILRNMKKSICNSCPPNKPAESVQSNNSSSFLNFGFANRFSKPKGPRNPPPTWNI

Galanin receptor type 3 = target: T2, Galanin receptor type 3 (Homo sapiens, UniProt O60755); experiment: Fluorescence-based cell-based primary high throughput dose response assay to identify antagonists of the Galanin Receptor 3 (GalR3).; format: functional
T2 sequence (O60755 whole entry): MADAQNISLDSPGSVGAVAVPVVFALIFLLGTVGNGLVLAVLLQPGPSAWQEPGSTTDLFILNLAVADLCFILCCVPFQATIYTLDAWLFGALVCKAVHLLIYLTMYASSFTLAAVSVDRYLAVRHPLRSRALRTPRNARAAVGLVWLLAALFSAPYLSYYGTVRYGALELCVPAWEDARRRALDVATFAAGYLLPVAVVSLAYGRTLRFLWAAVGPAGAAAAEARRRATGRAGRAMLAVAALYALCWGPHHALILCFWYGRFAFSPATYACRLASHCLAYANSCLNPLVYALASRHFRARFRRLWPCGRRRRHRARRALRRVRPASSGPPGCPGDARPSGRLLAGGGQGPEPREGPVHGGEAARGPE

[2] = cytotoxicity toward NIH3T3 fibroblasts, dose response, counter-screen, cell-based, ATP luminescence, mouse fibroblasts (AID 2010); format: functional;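 note: cells exposed to compound for about 90 hours before reading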
cells = format: functional, cell-based; settings: HEK-CNG
[3] = target: T1, Tyrosine-protein phosphatase non-receptor type 22; format: functional; remark: listed apart in the source
[4] = target: T3, Tyrosine-protein phosphatase non-receptor type 7 (Homo sapiens, UniProt P35236); format: functional
T3 sequence (P35236 whole entry): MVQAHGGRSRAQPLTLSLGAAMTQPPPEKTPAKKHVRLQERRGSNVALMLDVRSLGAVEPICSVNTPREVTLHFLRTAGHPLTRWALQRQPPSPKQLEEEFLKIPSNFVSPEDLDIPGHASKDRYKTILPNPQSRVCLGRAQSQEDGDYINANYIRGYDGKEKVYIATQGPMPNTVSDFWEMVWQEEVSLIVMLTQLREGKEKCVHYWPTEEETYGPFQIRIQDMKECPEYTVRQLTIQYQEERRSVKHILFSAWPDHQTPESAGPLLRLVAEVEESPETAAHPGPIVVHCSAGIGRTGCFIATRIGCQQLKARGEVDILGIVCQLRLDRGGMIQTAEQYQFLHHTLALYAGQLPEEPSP

[5] = inhibitors of intracellular T. cruzi replication, confirmation, NIH3T3 host cells, beta-gal luminescence (AID 2044); format: functional, cell-based;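 note: intracellular parasites grown in NIH/3T3 mouse fibroblasts as host cells; luminescent beta-galactosidase reporter signal from transgenic T. cruzi replicating inside host cells; inhibitors lower the luminescence signal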
SUMO E1/E2 = SUMO E1/E2 (Homo sapiens, UniProt P63279+Q9UBE0+Q9UBT2); experiment: SAR analysis of SUMOylation using HTRF in an in-Vitro dose response assay. [Related pubchem assays (depositor defined):AID2006, AID2011, AID2018, AID2069, AID2658]; format: functional
[6] = target: Nucleotide-binding oligomerization domain-containing protein 2 (Homo sapiens, UniProt Q9HC29); experiment: PubChem AID 2334; format: functional
Nucleotide-binding oligomerization domain-containing protein 2, sequence (Q9HC29 whole entry, the tested form may be a part): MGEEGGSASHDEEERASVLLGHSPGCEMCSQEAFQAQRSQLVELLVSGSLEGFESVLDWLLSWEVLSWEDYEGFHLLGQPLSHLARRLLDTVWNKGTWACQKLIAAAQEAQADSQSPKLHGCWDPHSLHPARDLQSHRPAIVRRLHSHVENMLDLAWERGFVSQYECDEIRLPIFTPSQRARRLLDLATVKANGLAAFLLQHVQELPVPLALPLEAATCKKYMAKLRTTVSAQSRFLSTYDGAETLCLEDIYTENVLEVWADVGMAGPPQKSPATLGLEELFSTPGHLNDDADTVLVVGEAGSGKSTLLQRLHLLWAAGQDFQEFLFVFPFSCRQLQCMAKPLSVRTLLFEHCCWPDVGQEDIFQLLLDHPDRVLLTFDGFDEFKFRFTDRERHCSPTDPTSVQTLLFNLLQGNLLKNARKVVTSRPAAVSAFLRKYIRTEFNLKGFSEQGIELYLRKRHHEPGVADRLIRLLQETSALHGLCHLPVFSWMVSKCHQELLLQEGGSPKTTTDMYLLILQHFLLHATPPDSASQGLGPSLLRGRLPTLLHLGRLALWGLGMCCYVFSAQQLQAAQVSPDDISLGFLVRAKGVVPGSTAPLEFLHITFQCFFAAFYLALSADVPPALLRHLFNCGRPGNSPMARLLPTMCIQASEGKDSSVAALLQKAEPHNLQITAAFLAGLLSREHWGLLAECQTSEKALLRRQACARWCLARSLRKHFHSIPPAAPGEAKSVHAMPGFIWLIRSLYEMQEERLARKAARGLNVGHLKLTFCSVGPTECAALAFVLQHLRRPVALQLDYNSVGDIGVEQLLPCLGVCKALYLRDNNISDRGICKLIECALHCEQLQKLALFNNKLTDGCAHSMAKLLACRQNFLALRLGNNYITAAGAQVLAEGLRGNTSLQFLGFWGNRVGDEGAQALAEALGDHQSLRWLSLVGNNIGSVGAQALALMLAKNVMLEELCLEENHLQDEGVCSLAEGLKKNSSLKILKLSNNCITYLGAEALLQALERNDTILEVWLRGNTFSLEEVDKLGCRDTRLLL

HEK293 = experiment: cells; settings: Homo sapiens;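 note: cells exposed to compound for 14 hours overnight before viability readout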
Tumor necrosis factor = Tumor necrosis factor (Homo sapiens, UniProt P01375); experiment: TNFa-triggered NF-kB activation inhibitors, SAR follow-up, cell-based, revised (AID 2337); format: functional
[7] = target: T4, Intestinal-type alkaline phosphatase (Homo sapiens, UniProt P09923); experiment: human intestinal alkaline phosphatase activators, dose response, biochemical, luminescence, uHTS hits (AID 463120); format: functional
T4 sequence (P09923 whole entry): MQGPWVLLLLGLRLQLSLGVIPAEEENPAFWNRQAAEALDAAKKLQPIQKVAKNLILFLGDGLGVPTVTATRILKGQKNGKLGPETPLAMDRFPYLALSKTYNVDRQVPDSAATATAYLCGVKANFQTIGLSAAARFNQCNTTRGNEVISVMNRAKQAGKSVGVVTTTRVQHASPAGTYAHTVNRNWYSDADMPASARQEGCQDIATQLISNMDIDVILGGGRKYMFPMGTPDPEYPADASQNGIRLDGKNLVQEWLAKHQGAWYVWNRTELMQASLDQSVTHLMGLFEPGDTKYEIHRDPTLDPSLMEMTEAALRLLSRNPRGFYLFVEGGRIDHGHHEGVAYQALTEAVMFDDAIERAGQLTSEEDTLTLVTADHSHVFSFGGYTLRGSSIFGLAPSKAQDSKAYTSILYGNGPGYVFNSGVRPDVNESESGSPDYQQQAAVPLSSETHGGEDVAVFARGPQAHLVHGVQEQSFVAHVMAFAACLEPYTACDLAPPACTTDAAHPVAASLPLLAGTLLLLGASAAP

[8] = target: T5, Alkaline phosphatase, tissue-nonspecific isozyme (Homo sapiens, UniProt P05186); experiment: TNAP enzyme activators, dose response, selectivity assay for human IAP activator project, biochemical, TNAP isozyme, human IAP uHTS hits (AID 488886); format: functional;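 note: potency of compounds raising TNAP activity as a selectivity check on IAP activators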
T5 sequence (P05186 whole entry): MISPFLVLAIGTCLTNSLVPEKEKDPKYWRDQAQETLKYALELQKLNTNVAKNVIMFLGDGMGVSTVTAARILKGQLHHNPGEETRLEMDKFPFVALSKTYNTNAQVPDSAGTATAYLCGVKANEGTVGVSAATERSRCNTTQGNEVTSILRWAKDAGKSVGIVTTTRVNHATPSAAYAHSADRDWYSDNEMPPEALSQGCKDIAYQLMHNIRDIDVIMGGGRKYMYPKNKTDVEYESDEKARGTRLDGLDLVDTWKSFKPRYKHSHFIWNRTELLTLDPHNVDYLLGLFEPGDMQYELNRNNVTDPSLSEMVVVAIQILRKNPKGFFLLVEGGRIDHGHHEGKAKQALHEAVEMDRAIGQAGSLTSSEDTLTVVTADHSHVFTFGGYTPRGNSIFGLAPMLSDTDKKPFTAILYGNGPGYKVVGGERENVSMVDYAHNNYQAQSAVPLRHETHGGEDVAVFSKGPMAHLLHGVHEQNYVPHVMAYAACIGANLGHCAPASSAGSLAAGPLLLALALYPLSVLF

[9] = target: T4, Intestinal-type alkaline phosphatase; experiment: human IAP activators, dose response, biochemical, luminescent, uHTS hits, set 2 (AID 488817); format: functional;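 note: potency of activators that raise enzyme activity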
[10] = target: Nucleotide-binding oligomerization domain-containing protein 1 (Homo sapiens, UniProt Q9Y239); experiment: NOD1 signaling inhibitors, SAR follow-up, revised (AID 2333); format: functional
Nucleotide-binding oligomerization domain-containing protein 1, sequence (Q9Y239 whole entry, the tested form may be a part): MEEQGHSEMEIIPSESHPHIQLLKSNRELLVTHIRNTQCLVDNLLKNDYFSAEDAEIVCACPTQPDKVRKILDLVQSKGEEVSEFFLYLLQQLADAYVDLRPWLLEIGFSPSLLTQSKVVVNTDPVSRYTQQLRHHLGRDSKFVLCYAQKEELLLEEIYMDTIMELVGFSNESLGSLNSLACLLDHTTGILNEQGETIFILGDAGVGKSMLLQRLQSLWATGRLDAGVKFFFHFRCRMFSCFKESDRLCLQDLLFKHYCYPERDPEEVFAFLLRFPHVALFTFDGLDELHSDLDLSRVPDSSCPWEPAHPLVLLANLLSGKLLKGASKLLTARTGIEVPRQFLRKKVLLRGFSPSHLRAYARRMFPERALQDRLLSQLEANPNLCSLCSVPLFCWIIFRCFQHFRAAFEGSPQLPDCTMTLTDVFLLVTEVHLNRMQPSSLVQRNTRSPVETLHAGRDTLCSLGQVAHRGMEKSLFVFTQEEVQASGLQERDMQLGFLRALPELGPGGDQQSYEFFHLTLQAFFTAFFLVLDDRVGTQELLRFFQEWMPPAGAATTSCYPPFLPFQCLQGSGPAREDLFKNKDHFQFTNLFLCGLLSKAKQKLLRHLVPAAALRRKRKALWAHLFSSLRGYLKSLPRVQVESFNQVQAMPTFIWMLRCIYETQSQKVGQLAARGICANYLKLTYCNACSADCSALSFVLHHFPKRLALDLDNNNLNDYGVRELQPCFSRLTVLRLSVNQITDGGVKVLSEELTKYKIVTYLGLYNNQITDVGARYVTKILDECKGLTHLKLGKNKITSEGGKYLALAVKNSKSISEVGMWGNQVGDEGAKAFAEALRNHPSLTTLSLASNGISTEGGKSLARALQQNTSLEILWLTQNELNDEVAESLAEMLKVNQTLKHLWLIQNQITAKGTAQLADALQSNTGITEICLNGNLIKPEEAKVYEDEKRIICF

[11] = target: Intestinal-type alkaline phosphatase (Mus musculus, UniProt P24822); experiment: PubChem AID 488874; format: functional
Intestinal-type alkaline phosphatase (Mus musculus, UniProt P24822), sequence (P24822 whole entry): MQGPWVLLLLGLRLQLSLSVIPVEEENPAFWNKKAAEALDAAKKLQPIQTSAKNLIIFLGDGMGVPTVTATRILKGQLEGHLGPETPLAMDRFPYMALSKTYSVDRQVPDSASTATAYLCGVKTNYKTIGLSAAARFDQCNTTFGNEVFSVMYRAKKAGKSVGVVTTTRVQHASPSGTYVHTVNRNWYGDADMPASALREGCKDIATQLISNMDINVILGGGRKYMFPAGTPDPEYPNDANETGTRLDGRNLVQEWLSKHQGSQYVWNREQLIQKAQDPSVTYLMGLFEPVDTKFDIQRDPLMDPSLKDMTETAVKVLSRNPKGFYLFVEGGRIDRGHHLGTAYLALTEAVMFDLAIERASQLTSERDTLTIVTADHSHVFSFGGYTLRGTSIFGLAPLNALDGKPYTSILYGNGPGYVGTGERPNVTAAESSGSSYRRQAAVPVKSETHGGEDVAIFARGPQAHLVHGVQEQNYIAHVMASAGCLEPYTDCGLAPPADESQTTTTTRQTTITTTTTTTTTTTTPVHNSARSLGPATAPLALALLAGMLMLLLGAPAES

Ion channel NompC = Ion channel NompC (Danio rerio, UniProt Q7T1G6); experiment: Fluorescence counterscreen assay for TRPML3 agonists: dose response cell-based high-throughput screening assay to identify agonists of the transient receptor potential channel N1 (TRPN1). [Related pubchem assays: 1526, 1424, 1448 ]; format: functional
[12] = target: T6, Kappa-type opioid receptor (Homo sapiens, UniProt P41145); format: functional
T6 sequence (P41145 whole entry): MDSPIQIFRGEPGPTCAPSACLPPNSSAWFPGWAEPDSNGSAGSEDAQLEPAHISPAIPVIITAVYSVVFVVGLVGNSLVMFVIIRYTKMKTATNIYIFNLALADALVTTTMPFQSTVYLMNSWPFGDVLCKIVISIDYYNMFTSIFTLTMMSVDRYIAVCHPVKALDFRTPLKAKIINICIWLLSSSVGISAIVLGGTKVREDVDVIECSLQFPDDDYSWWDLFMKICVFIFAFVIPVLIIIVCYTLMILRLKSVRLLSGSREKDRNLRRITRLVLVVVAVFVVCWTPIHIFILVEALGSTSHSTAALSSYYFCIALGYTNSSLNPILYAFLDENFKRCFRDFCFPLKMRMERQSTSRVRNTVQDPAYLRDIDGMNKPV

[13] = target: T7, Delta-type opioid receptor (Homo sapiens, UniProt P41143); experiment: HTS Image-Based Screen for Agonists of the DOR Receptor. [Related pubchem assays (depositor defined):AID1777, AID1786, AID2133]; format: functional
T7 sequence (P41143 whole entry): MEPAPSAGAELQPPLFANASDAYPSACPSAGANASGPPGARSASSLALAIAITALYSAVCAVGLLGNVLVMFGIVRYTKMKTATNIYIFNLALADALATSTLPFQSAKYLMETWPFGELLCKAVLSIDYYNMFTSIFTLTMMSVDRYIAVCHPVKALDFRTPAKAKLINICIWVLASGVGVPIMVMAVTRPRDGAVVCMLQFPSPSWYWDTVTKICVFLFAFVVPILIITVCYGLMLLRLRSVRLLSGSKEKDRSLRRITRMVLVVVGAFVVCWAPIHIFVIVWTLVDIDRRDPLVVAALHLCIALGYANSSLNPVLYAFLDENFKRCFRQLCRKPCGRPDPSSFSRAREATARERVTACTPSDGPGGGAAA

[14] = HepG2 cell cytotoxicity, dose response, cytotoxicity control for Shn3 inhibitor project, CellTiter-Glo, cherry-picked (AID 624134); format: functional, cell-based
Mu-type opioid receptor = Mu-type opioid receptor (Homo sapiens, UniProt P35372); experiment: HTS Image-Based Screen for Agonists of the MOR Receptor. [Related pubchem assays (depositor defined):AID1777, AID1785, AID1786, AID2133]; format: functional;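 note: imaging of beta-arrestin GFP recruitment into spots after receptor activation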
[15] = Shn3 3'UTR reporter inhibitors, dose response, cell-based, Clone20 osteoblasts, firefly luciferase, cherry-picked (AID 624132); format: functional;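 note: firefly luciferase luminescence from reporter carrying the Shn3 3'UTR in osteoblasts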
[16] = target: T6, Kappa-type opioid receptor; format: functional; remark: listed apart in the source
[17] = target: T7, Delta-type opioid receptor; experiment: HTS Image-Based Screen for Antagonists of the DOR Receptor. [Related pubchem assays (depositor defined):AID1777, AID1785, AID1786, AID2133]; format: functional
[18] = control 3'UTR Renilla luciferase suppression, dose response, counter-screen for Shn3 inhibitor project, cell-based, Clone20-Shn3RL, cherry-picked (AID 624133); format: functional
Mucolipin-3 = target: T8, Mucolipin-3 (Homo sapiens, UniProt Q8TDD5); experiment: Dose response cell-based high-throughput screening assay for agonists of the transient receptor potential channel ML3 (TRPML3). [Related pubchem assays: 1526, 1424, 1448 ]; format: functional
T8 sequence (Q8TDD5 whole entry): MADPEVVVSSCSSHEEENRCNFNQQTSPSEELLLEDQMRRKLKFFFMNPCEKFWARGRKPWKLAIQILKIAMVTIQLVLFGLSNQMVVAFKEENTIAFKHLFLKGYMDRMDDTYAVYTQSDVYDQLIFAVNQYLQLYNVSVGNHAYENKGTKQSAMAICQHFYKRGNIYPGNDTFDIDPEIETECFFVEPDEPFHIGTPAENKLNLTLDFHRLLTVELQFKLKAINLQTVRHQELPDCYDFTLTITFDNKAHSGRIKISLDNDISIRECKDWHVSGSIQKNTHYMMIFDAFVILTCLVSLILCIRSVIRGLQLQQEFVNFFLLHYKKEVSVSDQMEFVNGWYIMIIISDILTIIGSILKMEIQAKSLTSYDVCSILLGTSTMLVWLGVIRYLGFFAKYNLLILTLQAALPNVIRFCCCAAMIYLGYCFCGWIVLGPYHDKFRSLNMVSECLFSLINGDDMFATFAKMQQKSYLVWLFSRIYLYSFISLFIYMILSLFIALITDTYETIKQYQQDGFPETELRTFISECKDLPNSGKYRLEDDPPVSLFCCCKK

[19] = target: Sphingosine 1-phosphate receptor 1 (Homo sapiens, UniProt P21453); experiment: Late stage counterscreen assay for S1P4 antagonists: Fluorescence dose response cell-based screening assay for antagonists of the Sphingosine 1-Phosphate Receptor 1 (S1P1). [Related pubchem assays (depositor defined):AID1510, AID1524, AID1692, AID1853, AID2332, AID489009, AID489017]; format: functional
Sphingosine 1-phosphate receptor 1, sequence (P21453 whole entry): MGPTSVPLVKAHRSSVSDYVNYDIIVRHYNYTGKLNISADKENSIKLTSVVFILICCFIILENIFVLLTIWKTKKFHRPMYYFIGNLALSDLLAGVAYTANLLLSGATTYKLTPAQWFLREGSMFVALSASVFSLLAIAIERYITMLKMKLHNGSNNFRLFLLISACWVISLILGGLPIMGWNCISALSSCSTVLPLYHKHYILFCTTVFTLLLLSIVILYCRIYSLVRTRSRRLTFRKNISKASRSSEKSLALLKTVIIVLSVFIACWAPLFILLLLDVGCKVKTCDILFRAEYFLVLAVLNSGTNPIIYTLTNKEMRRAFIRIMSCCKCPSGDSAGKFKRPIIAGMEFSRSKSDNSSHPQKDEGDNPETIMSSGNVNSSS

[20] = Late-stage results from the probe development effort to identify antagonists of the Sphingosine 1-Phosphate Receptor 4 (S1P4): luminescence-based cell-based dose response assay to determine cytotoxicity of antagonist compounds. [Related pubchem assays (depositor defined):AID1510, AID1524, AID1564, AID1692, AID1821, AID1853, AID2332, AID2346, AID2349, AID2350, AID2351, AID2354]; format: functional
[21] = target: Sphingosine 1-phosphate receptor 3 (Homo sapiens, UniProt Q99500); experiment: Late stage counterscreen assay for S1P4 antagonists: Fluorescence dose response cell-based screening assay for antagonists of the Sphingosine 1-Phosphate Receptor 3 (S1P3). [Related pubchem assays (depositor defined):AID1510, AID1524, AID1692, AID1853, AID2332, AID489009, AID489017]; format: functional
Sphingosine 1-phosphate receptor 3, sequence (Q99500 whole entry): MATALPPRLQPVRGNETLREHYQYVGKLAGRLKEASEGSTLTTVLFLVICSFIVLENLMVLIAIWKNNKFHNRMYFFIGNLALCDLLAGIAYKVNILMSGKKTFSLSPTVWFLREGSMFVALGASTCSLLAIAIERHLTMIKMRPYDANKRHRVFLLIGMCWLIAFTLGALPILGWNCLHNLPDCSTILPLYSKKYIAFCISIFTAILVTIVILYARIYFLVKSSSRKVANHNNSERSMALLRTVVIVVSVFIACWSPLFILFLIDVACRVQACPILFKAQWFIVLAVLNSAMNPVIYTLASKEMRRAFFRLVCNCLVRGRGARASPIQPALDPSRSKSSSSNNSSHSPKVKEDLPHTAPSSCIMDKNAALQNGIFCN

[22] = target: Sphingosine 1-phosphate receptor 5 (Homo sapiens, UniProt Q9H228); experiment: Late stage counterscreen assay for S1P4 antagonists: Fluorescence dose response cell-based screening assay for antagonists of the Sphingosine 1-Phosphate Receptor 5 (S1P5). [Related pubchem assays (depositor defined):AID1510, AID1524, AID1692, AID1853, AID2332, AID489009, AID489017]; format: functional
[23] = target: Sphingosine 1-phosphate receptor 2 (Homo sapiens, UniProt O95136); experiment: Late stage counterscreen assay for S1P4 antagonists: Fluorescence dose response cell-based screening assay for antagonists of the Sphingosine 1-Phosphate Receptor 2 (S1P2). [Related pubchem assays (depositor defined):AID1510, AID1524, AID1692, AID1853, AID2332, AID489009, AID489017]; format: functional
Sphingosine 1-phosphate receptor 2, sequence (O95136 whole entry): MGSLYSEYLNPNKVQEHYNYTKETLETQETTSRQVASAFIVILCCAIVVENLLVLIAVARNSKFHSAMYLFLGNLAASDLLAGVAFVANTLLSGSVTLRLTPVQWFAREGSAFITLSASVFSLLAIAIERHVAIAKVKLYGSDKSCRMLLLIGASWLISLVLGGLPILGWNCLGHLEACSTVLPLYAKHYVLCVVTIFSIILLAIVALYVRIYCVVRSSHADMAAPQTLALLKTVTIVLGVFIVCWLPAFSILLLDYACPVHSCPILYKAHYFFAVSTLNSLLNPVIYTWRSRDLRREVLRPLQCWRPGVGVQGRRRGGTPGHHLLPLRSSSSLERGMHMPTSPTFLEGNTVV

COC(=O)C1CCN(Cc2ccc(OCCCN3CCN(c4ccc([N+](=O)[O-])cc4)CC3)cc2)CC1
IC50 [1]: > 79.4 µM (inactive)
IC50 (Galanin receptor type 3): 1.33 µM (active)
EC50 [2]: > 30 µM (not active)
EC50 (cells): > 29.9 µM (inactive)
IC50 [3]: > 79.4 µM (inactive)
IC50 [4]: > 79.4 µM (inactive)
EC50 [5]: 0.257 µM (active)

C/C(=N\OCc1nc2ccccc2c(=O)n1/N=C/c1ccc(Cl)cc1)c1ccccc1
IC50 (SUMO E1/E2): > 100 µM (inactive)

Cc1cc(Br)ccc1SCC(=O)OC/C(O)=C(\C#N)c1nc2ccccc2[nH]1
IC50 [6]: > 20 µM (inactive)
IC50 (HEK293): > 20 µM (inactive)
IC50 (Tumor necrosis factor): > 20 µM (inactive)
EC50 [7]: 13.4 µM (active)
EC50 [8]: 24.1 µM (active)
EC50 [9]: 27.5 µM (active)
IC50 [10]: > 20 µM (inactive)
IC50 [11]: > 100 µM (inactive)

COc1ccc(CCN2C(=O)CS/C2=N\c2ccc(C(C)C)cc2)cc1OC
EC50 (Ion channel NompC): > 29.9 µM (not active)
EC50 [12]: 6.83 µM
EC50 [13]: > 32 µM (inactive)
AC50 [14]: 5.37 µM (active)
EC50 (Mu-type opioid receptor): > 32 µM (inactive)
AC50 [15]: 4.49 µM (active)
EC50 [16]: 5.88 µM
IC50 [17]: > 32 µM (inactive)
AC50 [18]: 7.07 µM (active)
EC50 (Mucolipin-3): > 29.9 µM (not active)

CCc1cccc(CC)c1NC(=O)c1ccc(-c2cc(Cl)ccc2Cl)o1
IC50 [19]: > 25 µM (inactive)
CC50 [20]: > 20 µM (inactive)
IC50 [21]: > 25 µM (inactive)
IC50 [22]: > 25 µM (inactive)
IC50 [23]: > 25 µM (inactive)
